Results as given in US10538487B2, “Sulfonylureas and related compounds and use of same” (priority 2015, dated 2020).
Like-named read-outs stand apart in the source and are kept apart here.

Assay: Single dose pharmacokinetic study in mice (iv 4 mg/Kg, po 20 mg/Kg), plasma concentration post-dosing
Assay type: in vivo, mouse
Conditions: male, C57BL/6, mouse, plasma, mouse; for concentration at 5 min: 5 min post dosing; for concentration at 0.25 h: 0.250 h post dosing; for concentration at 0.5 h: 0.500 h post dosing; for concentration at 1 h: 1.00 h post dosing; for concentration at 2 h: 2.00 h post dosing; for concentration at 4 h: 4.00 h post dosing; for concentration at 8 h: 8.00 h post dosing; for concentration at 24 h: 24.0 h post dosing
Procedure: This is advantageous leading to comparatively lower doses or less frequent administration. The procedure followed was: Male C57BL/6 mice were used at 7-9 weeks age with 3 animals per group. Mice were dosed with test compound using single intravenous bolus or oral gavage. Blood samples were taken via submandibular or saphenous vein for analysis of plasma concentrations of compound by LC-MS/MS at the following timepoints: IV (3 mice): 0.083, 0.25, 0.5, 1, 2, 4, 8 and 24 hours post dosing, PO (3 mice): 0.25, 0.5, 1, 2, 4, 8 and 24 hours post dosing. LC-MS/MS method for the quantitative determination of test compound in corresponding biological matrix was developed. […] The results are shown graphically in FIGS. 1A to 1C (MCC950) and FIGS. 2A to 2C (MCC7840).

CC(C)n1ccc(S(=O)(=O)NC(=O)Nc2c3c(cc4c2CCC4)CCC3)n1 [MCC_007840_002]
concentration at 5 min (iv, 4 mg/kg, IV 4 mg/Kg, individual mice M1-M3, read-out: Plasma concentration, IV Time 0.0833 h): 47800 ng/mL | concentration at 5 min (iv, 4 mg/kg, IV 4 mg/Kg, mean of 3 mice, read-out: Plasma concentration, IV Time 0.0833 h, Mean IV): 42800 ng/mL | concentration at 0.25 h (iv, 4 mg/kg, IV 4 mg/Kg, individual mice M1-M3, read-out: Plasma concentration, IV Time 0.250 h): 28100 ng/mL | concentration at 0.25 h (iv, 4 mg/kg, IV 4 mg/Kg, mean of 3 mice, read-out: Plasma concentration, IV Time 0.250 h, Mean IV): 28900 ng/mL | concentration at 0.5 h (iv, 4 mg/kg, IV 4 mg/Kg, individual mice M1-M3, read-out: Plasma concentration, IV Time 0.500 h): 25200 ng/mL | concentration at 0.5 h (iv, 4 mg/kg, IV 4 mg/Kg, mean of 3 mice, read-out: Plasma concentration, IV Time 0.500 h, Mean IV): 25000 ng/mL | concentration at 1 h (iv, 4 mg/kg, IV 4 mg/Kg, individual mice M1-M3, read-out: Plasma concentration, IV Time 1.00 h): 19900 ng/mL | concentration at 1 h (iv, 4 mg/kg, IV 4 mg/Kg, mean of 3 mice, read-out: Plasma concentration, IV Time 1.00 h, Mean IV): 18700 ng/mL | concentration at 2 h (iv, 4 mg/kg, IV 4 mg/Kg, individual mice M1-M3, read-out: Plasma concentration, IV Time 2.00 h): 13300 ng/mL | concentration at 2 h (iv, 4 mg/kg, IV 4 mg/Kg, mean of 3 mice, read-out: Plasma concentration, IV Time 2.00 h, Mean IV): 16000 ng/mL | concentration at 4 h (iv, 4 mg/kg, IV 4 mg/Kg, individual mice M1-M3, read-out: Plasma concentration, IV Time 4.00 h): 6520 ng/mL | concentration at 4 h (iv, 4 mg/kg, IV 4 mg/Kg, mean of 3 mice, read-out: Plasma concentration, IV Time 4.00 h, Mean IV): 7890 ng/mL | concentration at 8 h (iv, 4 mg/kg, IV 4 mg/Kg, individual mice M1-M3, read-out: Plasma concentration, IV Time 8.00 h): 3490 ng/mL | concentration at 8 h (iv, 4 mg/kg, IV 4 mg/Kg, mean of 3 mice, read-out: Plasma concentration, IV Time 8.00 h, Mean IV): 3760 ng/mL | concentration at 24 h (iv, 4 mg/kg, IV 4 mg/Kg, individual mice M1-M3, read-out: Plasma concentration, IV Time 24.0 h): 149 ng/mL | concentration at 24 h (iv, 4 mg/kg, IV 4 mg/Kg, mean of 3 mice, read-out: Plasma concentration, IV Time 24.0 h, Mean IV): 134 ng/mL | AUC0-inf (iv, 4 mg/kg, IV 4 mg/Kg, individual mice M1-M3, read-out: AUC0-inf): 101 µg·h/mL | AUC(0-t) (iv, 4 mg/kg, IV 4 mg/Kg, individual mice M1-M3, read-out: AUC0-last): 100 µg·h/mL | C0 (iv, 4 mg/kg, IV 4 mg/Kg, individual mice M1-M3, read-out: C0): 62300 ng/mL | clearance (iv, 4 mg/kg, IV 4 mg/Kg, individual mice M1-M3, read-out: Cl): 0.659 mL/min/kg | MRT inf (iv, 4 mg/kg, IV 4 mg/Kg, individual mice M1-M3, read-out: MRT0-inf): 4.3 h | MRT last (iv, 4 mg/kg, IV 4 mg/Kg, individual mice M1-M3, read-out: MRT0-last): 4.11 h | half-life (iv, 4 mg/kg, IV 4 mg/Kg, individual mice M1-M3, read-out: T1/2 (converted)): 3.62 h | Vd (iv, 4 mg/kg, IV 4 mg/Kg, individual mice M1-M3, read-out: Vdss): 0.17 L/kg | AUC0-inf (iv, 4 mg/kg, IV 4 mg/Kg, mean of 3 mice, read-out: AUC0-inf, Mean IV): 108 µg·h/mL | AUC(0-t) (iv, 4 mg/kg, IV 4 mg/Kg, mean of 3 mice, read-out: AUC0-last, Mean IV): 107 µg·h/mL | clearance (iv, 4 mg/kg, IV 4 mg/Kg, mean of 3 mice, read-out: Cl, Mean IV): 0.621 mL/min/kg | MRT inf (iv, 4 mg/kg, IV 4 mg/Kg, mean of 3 mice, read-out: MRT0-inf, Mean IV): 4.29 h | MRT last (iv, 4 mg/kg, IV 4 mg/Kg, mean of 3 mice, read-out: MRT0-last, Mean IV): 4.13 h | half-life (iv, 4 mg/kg, IV 4 mg/Kg, mean of 3 mice, read-out: T1/2, Mean IV (converted)): 3.39 h | Vd (iv, 4 mg/kg, IV 4 mg/Kg, mean of 3 mice, read-out: Vdss, Mean IV): 0.16 L/kg | concentration at 0.25 h (po, 20 mg/kg, PO 20 mg/Kg, mean of 3 mice, read-out: Plasma concentration, PO Time 0.250 h, Mean PO): 60500 ng/mL | concentration at 0.5 h (po, 20 mg/kg, PO 20 mg/Kg, mean of 3 mice, read-out: Plasma concentration, PO Time 0.500 h, Mean PO): 50300 ng/mL | concentration at 1 h (po, 20 mg/kg, PO 20 mg/Kg, mean of 3 mice, read-out: Plasma concentration, PO Time 1.00 h, Mean PO): 42300 ng/mL | concentration at 2 h (po, 20 mg/kg, PO 20 mg/Kg, mean of 3 mice, read-out: Plasma concentration, PO Time 2.00 h, Mean PO): 42600 ng/mL | concentration at 4 h (po, 20 mg/kg, PO 20 mg/Kg, mean of 3 mice, read-out: Plasma concentration, PO Time 4.00 h, Mean PO): 26600 ng/mL | concentration at 8 h (po, 20 mg/kg, PO 20 mg/Kg, mean of 3 mice, read-out: Plasma concentration, PO Time 8.00 h, Mean PO): 18900 ng/mL | concentration at 24 h (po, 20 mg/kg, PO 20 mg/Kg, mean of 3 mice, read-out: Plasma concentration, PO Time 24.0 h, Mean PO): 1470 ng/mL | AUC0-inf (po, 20 mg/kg, PO 20 mg/Kg, individual mice M4-M6, read-out: AUC0-inf): 368 µg·h/mL | MRT last (po, 20 mg/kg, PO 20 mg/Kg, individual mice M4-M6, read-out: MRT0-last): 4.8 h | Tmax (po, 20 mg/kg, PO 20 mg/Kg, individual mice M4-M6, read-out: Tmax): 0.25 h | AUC0-inf (po, 20 mg/kg, PO 20 mg/Kg, mean of 3 mice, read-out: AUC0-inf, Mean PO): 362 µg·h/mL | AUC(0-t) (po, 20 mg/kg, PO 20 mg/Kg, mean of 3 mice, read-out: AUC0-last, Mean PO): 350 µg·h/mL | Cmax (po, 20 mg/kg, PO 20 mg/Kg, mean of 3 mice, read-out: Cmax, Mean PO): 60500 ng/mL | MRT inf (po, 20 mg/kg, PO 20 mg/Kg, mean of 3 mice, read-out: MRT0-inf, Mean PO): 7.52 h
